Experimental data: PMC11440508, “Dually Labeled Neurotensin NTS1R Ligands for Probing Radiochemical and Fluorescence-Based Binding Assays” (Journal of Medicinal Chemistry, 2024)
Where two headings read alike, the source gives them in different places. Each block holds one compound with its values, some of them ahead of it. Starred links: 1 amine or outer side, 2 acyl side, 3 side chain; linkers in the order of their positions; H or OH if unused. Non-standard residues stand in square brackets, D forms with d. Residues, ends and D or L forms follow the SMILES beside them. Groups on a side chain read outwards from the residue. *: point of attachment. X1 = CN(C)c1ccc2c(-c3ccc(C(=O)*)cc3C(=O)[O-])c3ccc(=[N+](C)C)cc-3oc2c1; X4 = NCCCCNC(=O)N=C(N)NCCC[C@H](N[*:1])C(=O)[*:2]; dTyr(β,β-Me2) = CC(C)(c1ccc(O)cc1)[C@@H](N)C(=O)O; Tyr(β,β-Me2) = CC(C)(c1ccc(O)cc1)[C@H](N)C(=O)O; Gly(piperidin-4-yl) = N[C@H](C(=O)O)C1CCNCC1; X2 = O=C(CCc1cn(CCCN[*:1])nn1)[*:2]; Pent4ynoyl = C#CCCC(=O)*; Pra = C#CC[C@H](N)C(=O)O; NH(CH2)4NH2 = NCCCCN*; CO = O=C([*:1])[*:2]; Propionyl = CCC(=O)*; GABA = NCCCC(=O)O

Tests used:
NTS1R [1] = target: T1, NTS1R (Homo sapiens, UniProt P30989); test: Radioligand competition binding with [^3H]UR-MK300 at intact HT-29 colon carcinoma cells; settings: [^3H]UR-MK300, intact HT-29 cells, 23 °C; read-out: NTS1R pKi ± SEM (converted)
Description: NTS1R binding affinities were determined in a reported competition binding assay[13] using intact hNTS1R-expressing HT-29 colon carcinoma cells and [^3H]UR-MK300 (structure see Figure 1A) as radioligand (competition binding curves shown in Figure S4, Supporting Information).
NTS1R radioligand competition binding experiments with [^3H]UR-MK300 (molar activity: 2.41 TBq/mmol) and the peptides 6–9, 10a, 10b, 13–16, and 18 were performed with intact hNTS1R-expressing human HT-29 colon carcinoma cells at 23 ± 1 °C using a previously reported protocol.[13] […] Cells were seeded one day before the assay, yielding a confluency of at least 90% on the day of the experiment. Total binding data (including total binding in the absence of competitor) were plotted as dpm values against log(concentration competitor) and analyzed by a four-parameter logistic equation (log(inhibitor) vs response–variable slope, GraphPad Prism 5, GraphPad Software, San Diego, CA) to obtain pIC50 values. Individual pIC50 values were converted to pKi values according to the Cheng–Prusoff equation[60] (logarithmic form). To plot average data from individual binding experiments, data were normalized (100% = “top” of the four-parameter logistic fit, 0% = unspecifically bound radioligand).

NTS1R [2] = target: T1, NTS1R; test: Fura-2 Ca^2+ assay at CHO-hNTS1R cells; type: cell-based; settings: agonist mode, read-out: NTS1R pEC50 ± SEM (converted)
NTS1R [3] = target: T1, NTS1R; test: Flow cytometric (FC) competition binding, suspended CHO-hNTS1R cells; settings: labeled probe 13 (2.6 nM), 90 min, 23 °C
Description: Flow cytometry-based NTS1R binding studies were performed with intact CHO-hNTS1R (all kind of experiments) and HT-29 cells (only saturation binding) using a BD FACSCanto II (Becton Dickinson, Heidelberg, Germany), equipped with an argon laser (488 nm) and a red diode laser (640 nm), and a BD High Throughput Sampler (HTS unit) for microtiter plates. Saturation and competition binding experiments were performed in triplicate in 96-well polypropylene plates (Brand 701330, Wertheim, Germany) using the HTS unit for sample injection. Association and dissociation experiments were performed in duplicate in 5 mL polypropylene tubes (VWR, Radnor) using the standard injection port of the flow cytometer. The following gain settings for forward and sideward scatter were applied: FSC, 0 V; SSC, 252 V. Fluorescence was recorded using the PE-channel (excitation: 488 nm, emission: 585 ± 21) nm with a PMT gain of 330–400 V. For measurements using the HTS unit, 45 μL of the sample were injected with a speed of 1.5 μL/s. For measurements, requiring the use of the standard injection port, the medium flow rate ([…]) was used. Measurements were stopped after 30 s (HTS unit) or after counting of 500–3000 gated events (standard injection port). […]
A 96-well polypropylene plate was prefilled with 200 μL of cell suspension. […] Data were analyzed as described for HCI competition binding experiments.

NTS1R [4] = settings: reported binding data, cited from earlier work
NTS1R [5] = target: T1, NTS1R; test: Radiochemical competition binding with [^3H]13 at membranes of CHO-hNTS1R cells; settings: labeled probe [^3H]13 ([…]), 50 μM GppNHp, 23 °C
NTS1R [6] = target: T1, NTS1R; test: Fluorescence anisotropy (FA) competition binding at hNTS1R-displaying BBVs; set-up: NlucC (C-terminal fragment of nanoluciferase, 11 amino acids) (C); made in house; host or cells: Sf9 insect cells, baculovirus (pIMACE-CMVintP10-hNTS1R-Nluc, DH10MultiBac); budded baculovirus particles; settings: 27 °C
NTS1R [7] = target: T1, NTS1R; test: Radiochemical competition binding, adherent CHO-hNTS1R cells; settings: labeled probe [^3H]13 (1.3 nM), 90 min, 23 °C
NTS1R [8] = target: T1, NTS1R; test: Radiochemical competition binding, suspended CHO-hNTS1R cells; settings: labeled probe [^3H]13 (1.8 nM), 90 min, 23 °C
NTS1R [9] = target: T1, NTS1R; test: High-content imaging (HCI) competition binding, adherent CHO-hNTS1R cells; settings: labeled probe 13 ([…]), 90 min, 23 °C
Description: The final volume per well was 200 μL. […] All experiments were performed in triplicate.

T1 sequence (P30989 whole entry): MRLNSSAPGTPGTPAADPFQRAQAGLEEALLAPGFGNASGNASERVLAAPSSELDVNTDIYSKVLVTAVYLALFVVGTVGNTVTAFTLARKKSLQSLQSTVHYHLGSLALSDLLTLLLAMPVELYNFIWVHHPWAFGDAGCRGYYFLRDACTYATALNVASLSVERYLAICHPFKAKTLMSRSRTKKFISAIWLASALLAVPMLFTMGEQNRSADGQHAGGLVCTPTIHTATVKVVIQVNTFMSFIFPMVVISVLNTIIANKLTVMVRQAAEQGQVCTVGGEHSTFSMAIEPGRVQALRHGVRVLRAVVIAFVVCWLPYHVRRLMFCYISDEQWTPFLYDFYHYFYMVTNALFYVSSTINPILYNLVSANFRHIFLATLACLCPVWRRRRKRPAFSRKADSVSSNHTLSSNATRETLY

Compound: C#CCCC(=O)N[C@H](C(=O)N1CCC[C@H]1C(=O)N[C@@H](CCCNC(N)=NC(=O)NCCCCN)C(=O)N[C@@H](CCCNC(=N)N)C(=O)N1CCC[C@H]1C(=O)N[C@@H](Cc1ccc(O)cc1)C(=O)N[C@H](C(=O)N[C@@H](CC(C)C)C(=O)O)[C@@H](C)CC)C1CCNCC1 [Compound 6, N^α-(Pent-4-ynoyl)-2-(piperidin-4-yl)-Gly-Pro-N^ω-[(4-aminobutyl)aminocarbonyl]Arg-Arg-Pro-Tyr-Ile-Leu Tetrakis(hydrotrifluoroacetate)] (Pent4ynoyl-[Gly(piperidin-4-yl)]P[X4]RPYIL-OH)
Ki (NTS1R [1]): 0.603 nM

Compound: C#CC[C@H](NC(=O)CCCN)C(=O)N[C@H](C(=O)N1CCC[C@H]1C(=O)N[C@@H](CCCNC(=N)N)C(=O)N[C@@H](CCCNC(=N)N)C(=O)N1CCC[C@H]1C(=O)N[C@@H](Cc1ccc(O)cc1)C(=O)N[C@H](C(=O)N[C@@H](CC(C)C)C(=O)O)[C@@H](C)CC)C1CCNCC1 [Compound 9] (H-[GABA][Pra][Gly(piperidin-4-yl)]PRRPYIL-OH)
Ki (NTS1R [1]): 0.302 nM

Compound: C#CCCC(=O)N[C@H](C(=O)N1CCC[C@H]1C(=O)N[C@@H](CCCNC(=N)NC(=O)NCCCCN)C(=O)N[C@@H](CCCNC(=N)N)C(=O)N1CCC[C@H]1C(=O)N[C@H](C(=O)N[C@H](C(=O)N[C@@H](CC(C)C)C(=O)O)[C@@H](C)CC)C(C)(C)c1ccc(O)cc1)C1CCNCC1 [Compound 10a, N^α-(Pent-4-ynoyl)-2-(piperidin-4-yl)-Gly-Pro-N^ω-[(4-aminobutyl)aminocarbonyl]Arg-Arg-Pro-β,β-dimethyl-L-Tyr-Ile-Leu Tetrakis(hydrotrifluoroacetate)] (Pent4ynoyl-[Gly(piperidin-4-yl)]PR([CO-NH(CH2)4NH2])RP[Tyr(β,β-Me2)]IL-OH)
EC50 (NTS1R [2]): 0.316 nM

Compound: C#CCCC(=O)N[C@H](C(=O)N1CCC[C@H]1C(=O)N[C@@H](CCCNC(N)=NC(=O)NCCCCN)C(=O)N[C@@H](CCCNC(=N)N)C(=O)N1CCC[C@H]1C(=O)N[C@@H](C(=O)N[C@H](C(=O)N[C@@H](CC(C)C)C(=O)O)[C@@H](C)CC)C(C)(C)c1ccc(O)cc1)C1CCNCC1 [Compound 10b, N^α-(Pent-4-ynoyl)-2-(piperidin-4-yl)-Gly-Pro-N^ω-[(4-aminobutyl)aminocarbonyl]Arg-Arg-Pro-β,β-dimethyl-D-Tyr-Ile-Leu Tetrakis(hydrotrifluoroacetate)] (Pent4ynoyl-[Gly(piperidin-4-yl)]P[X4]RP[dTyr(β,β-Me2)]IL-OH)
Ki (NTS1R [1]): 135 nM

Compound: CCC(=O)NCCCC[C@@H](NC(=O)CCc1cn(CCCNC(=O)c2ccc(-c3c4ccc(=[N+](C)C)cc-4oc4cc(N(C)C)ccc34)c(C(=O)[O-])c2)nn1)C(=O)N1CCC[C@H]1C(=O)N[C@@H](CCCNC(=N)N)C(=O)N[C@@H](CCCNC(=N)N)C(=O)N1CCC[C@H]1C(=O)N[C@@H](Cc1ccc(O)cc1)C(=O)N[C@H](C(=O)N[C@@H](CC(C)C)C(=O)O)[C@@H](C)CC [Compound 15] (X1-[X2][dK](Propionyl)PRRPYIL-OH)
Ki (NTS1R [1]): 2.95 nM

Compound: CCC(=O)NCCCC(=O)N[C@@H](Cc1cn(CCCNC(=O)c2ccc(-c3c4ccc(=[N+](C)C)cc-4oc4cc(N(C)C)ccc34)c(C(=O)[O-])c2)nn1)C(=O)N[C@H](C(=O)N1CCC[C@H]1C(=O)N[C@@H](CCCNC(=N)N)C(=O)N[C@@H](CCCNC(=N)N)C(=O)N1CCC[C@H]1C(=O)N[C@@H](Cc1ccc(O)cc1)C(=O)N[C@H](C(=O)N[C@@H](CC(C)C)C(=O)O)[C@@H](C)CC)C1CCNCC1 [Compound 16]
Ki (NTS1R [1]): 0.724 nM

FC: pKi ± SEM (NTS1R [3]): 9.24 ± 0.15
pKi ± SEM (NTS1R [5]): 9.56 ± 0.06
FA: pKi ± SEM (NTS1R [6]; labeled probe 13 (0.3 nM), NTS1R-BBVs, 90 min): 8.97
FA: pKi (NTS1R [6]; labeled probe 18, NTS1R-BBVs): 9.19
RC adherent cells: pKi ± SEM (NTS1R [7]): 8.31 ± 0.18
RC cell suspension: pKi ± SEM (NTS1R [8]): 8.19 ± 0.16
HCI: pKi ± SEM (NTS1R [9]): 9.42 ± 0.21
Compound: SR142948
Ki (NTS1R [4]; ref 13): 1.1 nM
Ki (NTS1R [4]; ref 52): 1 nM
